Experimental findings from patent US20230116972A1, “CD38 MODULATORS AND METHODS OF USE THEREOF” (Cytokinetics, Inc., priority 2021, published 2023) are described below.

Experiment [1] addresses T1, mouse CD38 (Mus musculus, UniProt P56528).
T1 sequence (P56528 1-304): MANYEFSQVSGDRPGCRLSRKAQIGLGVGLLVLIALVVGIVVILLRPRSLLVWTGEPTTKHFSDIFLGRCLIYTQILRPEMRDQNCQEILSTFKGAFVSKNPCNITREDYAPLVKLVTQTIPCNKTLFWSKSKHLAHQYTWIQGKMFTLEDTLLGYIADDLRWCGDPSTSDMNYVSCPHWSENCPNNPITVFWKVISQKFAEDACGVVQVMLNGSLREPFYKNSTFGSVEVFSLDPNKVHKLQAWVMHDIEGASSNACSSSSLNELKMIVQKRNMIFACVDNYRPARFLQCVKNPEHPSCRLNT
Kind of experiment: mouse recombinant CD38 enzyme assay (hydrolysis of NAD+). The class given is biochemical. The settings on record: read-out: mCD38 BioChem IC50. In outline: (§1)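 Cell-free recombinant enzyme, NAD+ substrate, 60 min at RT. Stop/detect: ethanol/ADH plus semicarbazide and a CD38 inhibitor (15 min), then NaOH, then resazurin/diaphorase (15 min). Remaining NAD+ read as resorufin fluorescence, Ex/Em 540/590 nm. Inhibition fitted from dose responses.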

The target of experiment [2] is T2, endogenous CD38 in HL60 cells (Homo sapiens, UniProt P28907).
T2 construct: endogenous in cells; host or cells: HL60 (leukemic cells, treated with all-trans retinoic acid)
T2 sequence (P28907 1-300): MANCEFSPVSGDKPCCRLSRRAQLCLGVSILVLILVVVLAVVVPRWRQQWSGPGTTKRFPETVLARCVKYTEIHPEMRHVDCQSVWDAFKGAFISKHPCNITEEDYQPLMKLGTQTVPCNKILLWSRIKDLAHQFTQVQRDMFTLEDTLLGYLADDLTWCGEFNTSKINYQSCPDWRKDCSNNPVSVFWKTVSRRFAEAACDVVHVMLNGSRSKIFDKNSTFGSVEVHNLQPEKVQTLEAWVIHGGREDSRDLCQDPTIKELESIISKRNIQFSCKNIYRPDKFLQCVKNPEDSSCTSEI
Description: cellular CD38 assay in HL60 cells (cellular NAD levels). The class given is cell-based. The settings on record: all-trans retinoic acid, 24 hours, read-out: hCD38 HL60 ATRA NAD Cell Diaphorase IC50. Summed up:
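HL60 cells (20000/well) were treated with compound in DMSO for 24 h. Cellular NAD was then measured by an enzymatic cycling mix (alcohol dehydrogenase, diaphorase, 40 uM resazurin, 10 uM FMN, 3% ethanol, Triton X-100, pH 8.4).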

In experiment [3] the target is T3, human CD38 (Homo sapiens, UniProt P28907).
T3 sequence (P28907 1-300): T2 sequence (P28907 1-300)
Description: human recombinant CD38 enzyme assay (hydrolysis of NAD+). The settings on record: human recombinant CD38, 0.4 nM enzyme, 62.5 μM NAD+; read-out: hCD38 BioChem IC50. Format: biochemical. In outline:
as §1

As for `Cn1cncc1-c1nc(C(=O)NC23CC(C(C)(C)O)(C2)C3)cc(C2CCOCC2)n1` [Compound 292, N-(3-(2-hydroxypropan-2-yl)bicyclo[1.1.1]pentan-1-yl)-2-(1-methyl-1H-imidazol-5-yl)-6-(tetrahydro-2H-pyran-4-yl)pyrimidine-4-carboxamide], the IC50 worked out at 7.1 nM in experiment [1], 6610 nM in experiment [2] and 21.4 nM in experiment [3].

For `O=C(N[C@H]1CC[C@H](C(F)F)CC1)c1cncc(-n2ccnc2)n1` [Compound 89, N-((1r,4r)-4-(difluoromethyl)cyclohexyl)-6-(1H-imidazol-1-yl)pyrazine-2-carboxamide], the results for the IC50 in experiment [1], in experiment [2] and in experiment [3] were 10 nM, 915 nM and 22 nM, respectively.

For `O=C(NC1CCC(F)(F)CC1)c1cccc(-n2ccnc2)n1` [Compound 136, N-(4,4-difluorocyclohexyl)-6-(1H-imidazol-1-yl)picolinamide], the results for the IC50 in experiment [1], in experiment [2] and in experiment [3] were 6 nM, 1540 nM and 23 nM, respectively.

On to `CO[C@H]1CC[C@H](NC(=O)c2cc(C(F)(F)F)nc(-c3cncn3C)n2)CC1` [Compound 151, N-((1r,4r)-4-methoxycyclohexyl)-2-(1-methyl-1H-imidazol-5-yl)-6-(trifluoromethyl)pyrimidine-4-carboxamide], for which the values for the IC50 in experiment [1], in experiment [2] and in experiment [3] were 1 nM, 1970 nM and 14 nM, respectively.

For the molecule `O=C(Nc1ccc(C(F)F)nc1)c1cc(C2CC2)nc(-c2cncs2)n1` [Compound 110, 6-cyclopropyl-N-(6-(difluoromethyl)pyridin-3-yl)-2-(thiazol-5-yl)pyrimidine-4-carboxamide], the IC50 in experiment [1] was determined as 20 nM; in experiment [2], 2550 nM; in experiment [3], 108 nM.

On to `Cn1cncc1-c1ccnc(C(=O)N[C@H]2CC[C@H](C(C)(C)O)CC2)n1` [Compound 254, N-((1r,4r)-4-(2-hydroxypropan-2-yl)cyclohexyl)-4-(1-methyl-1H-imidazol-5-yl)pyrimidine-2-carboxamide], for which the results for the IC50 in experiment [1], in experiment [2] and in experiment [3] were 31.2 nM, 3670 nM and 93.5 nM, respectively.

For `Cn1cncc1-c1cncc(C(=O)NC2CC3(C2)CC(F)(F)C3)n1` [Compound 105, N-(6,6-difluorospiro[3.3]heptan-2-yl)-6-(1-methyl-1H-imidazol-5-yl)pyrazine-2-carboxamide], the 50% inhibitory concentration (IC50) in experiment [1] worked out at 24 nM; in experiment [2], 1670 nM; in experiment [3] it was 80 nM.

As to `COCCOc1cc(C(=O)Nc2ccc(C(F)F)nc2)nc(-c2cncn2C)n1` [Compound 307, N-(6-(difluoromethyl)pyridin-3-yl)-6-(2-methoxyethoxy)-2-(1-methyl-1H-imidazol-5-yl)pyrimidine-4-carboxamide], the IC50 was 1 nM in experiment [1], 254 nM in experiment [2] and 1.5 nM in experiment [3].

On to `O=C(Nc1ccccc1)c1cc(-n2ccnc2)ccn1` [Compound 5, 4-(1H-imidazol-1-yl)-N-phenylpicolinamide], for which the IC50 in experiment [1] stood at 420 nM; in experiment [2], 7820 nM; in experiment [3], 313 nM.

Turning to `O=C(Nc1ccc(C(F)F)nc1)c1cc(C2CCOCC2)nc(-n2ccnc2)n1` [Compound 195, N-(6-(difluoromethyl)pyridin-3-yl)-2-(1H-imidazol-1-yl)-6-(tetrahydro-2H-pyran-4-yl)pyrimidine-4-carboxamide], the IC50 is 9.9 nM in experiment [1], 1580 nM in experiment [2] and 14.6 nM in experiment [3].

For `O=C(NC1CCC(F)(F)CC1)c1cc(C2CCOCC2)nc(-n2ccnc2)n1` [Compound 194, N-(4,4-difluorocyclohexyl)-2-(1H-imidazol-1-yl)-6-(tetrahydro-2H-pyran-4-yl)pyrimidine-4-carboxamide], the IC50 in experiment [1] worked out at 63.6 nM; in experiment [2] it was 7160 nM; in experiment [3], 111 nM.

Turning to `Cn1cncc1-c1nc(C(=O)N[C@H]2CC[C@H](C(F)F)CC2)cc(C(F)(F)F)n1` [Compound 152, N-((1r,4r)-4-(difluoromethyl)cyclohexyl)-2-(1-methyl-1H-imidazol-5-yl)-6-(trifluoromethyl)pyrimidine-4-carboxamide], the values for the IC50 in experiment [1], in experiment [2] and in experiment [3] were 1 nM, 2350 nM and 13 nM, respectively.

With `COCCO[C@H]1CC[C@H](NC(=O)c2ccc(F)c(-n3ccnc3)n2)CC1` [Compound 54, 5-fluoro-6-(1H-imidazol-1-yl)-N-(4-(2-methoxyethoxy)cyclohexyl)picolinamide], the IC50 in experiment [1] was 38 nM; in experiment [2], 8280 nM; in experiment [3], 189 nM.

For `CO[C@H]1CC[C@H](NC(=O)c2cc(C(F)(F)F)nc(-n3ccnc3)n2)CC1` [Compound 111, 2-(1H-imidazol-1-yl)-N-((1r,4r)-4-methoxycyclohexyl)-6-(trifluoromethyl)pyrimidine-4-carboxamide], the values for the IC50 in experiment [1], in experiment [2] and in experiment [3] were 38 nM, 5490 nM and 129 nM, respectively.

In the case of `C[C@H]1CC[C@H](NC(=O)c2cc(C(F)(F)F)nc(-n3ccnc3)n2)CC1` [Compound 164, 2-(1H-imidazol-1-yl)-N-((1r,4r)-4-methylcyclohexyl)-6-(trifluoromethyl)pyrimidine-4-carboxamide], the values for the IC50 in experiment [1], in experiment [2] and in experiment [3] were 11 nM, 4000 nM and 44 nM, respectively.

Take `O=C(NC1CCOC1)c1cccc(-n2ccnc2)n1` (stereo not drawn) [Compound 63, 6-(1H-imidazol-1-yl)-N-(tetrahydrofuran-3-yl)picolinamide]: the IC50 came out at 163 nM in experiment [1], 5910 nM in experiment [2] and 404 nM in experiment [3].

As to `Cn1cncc1-c1nc(C(=O)N[C@H]2C[C@](O)(c3ccccc3)C2)cc(C2CCOCC2)n1` [Compound 277, N-((1s,3s)-3-hydroxy-3-phenylcyclobutyl)-2-(1-methyl-1H-imidazol-5-yl)-6-(tetrahydro-2H-pyran-4-yl)pyrimidine-4-carboxamide], the figures for the half-maximal inhibitory concentration (IC50) in experiment [1], in experiment [2] and in experiment [3] were 10.7 nM, 2070 nM and 7.9 nM, respectively.

For the molecule `COCCOc1cc(-c2cncn2C)nc(C(=O)Nc2ccc(C(F)(F)F)nc2)n1` [Compound 233, 4-(2-methoxyethoxy)-6-(1-methyl-1H-imidazol-5-yl)-N-(6-(trifluoromethyl)pyridin-3-yl)pyrimidine-2-carboxamide], the IC50 in experiment [1] came out at 1.1 nM; in experiment [2], 1040 nM; in experiment [3], 6 nM.

Regarding `Cc1cc(C(=O)Nc2cccnc2)nc(-n2ccnc2)c1` [Compound 32, 6-(1H-imidazol-1-yl)-4-methyl-N-(pyridin-3-yl)picolinamide], the IC50 in experiment [1] turned out to be 1 nM; in experiment [2], 264 nM; in experiment [3], 3 nM.

Consider `O=C(N[C@H]1CCN(c2ccccc2)C1)c1nccc(-n2ccnc2)n1` [Compound 247, (S)-4-(1H-imidazol-1-yl)-N-(1-phenylpyrrolidin-3-yl)pyrimidine-2-carboxamide], for which the IC50 in experiment [1] came to 139 nM; in experiment [2], 14400 nM; in experiment [3] it was 233 nM.

Take `COc1ncc(-c2cncn2C)nc1C(=O)Nc1ccc(C(F)(F)F)nc1` [Compound 279, 3-methoxy-6-(1-methyl-1H-imidazol-5-yl)-N-(6-(trifluoromethyl)pyridin-3-yl)pyrazine-2-carboxamide]: the IC50 was 42.6 nM in experiment [1], 865 nM in experiment [2] and 5.1 nM in experiment [3].

Turning to `Cn1cncc1-c1cncc(C(=O)N[C@H]2CC[C@H](C(F)F)CC2)n1` [Compound 92, N-((1r,4r)-4-(difluoromethyl)cyclohexyl)-6-(1-methyl-1H-imidazol-5-yl)pyrazine-2-carboxamide], the IC50 in experiment [1] was 13 nM; in experiment [2], 1180 nM; in experiment [3], 22 nM.

In the case of `Cn1cncc1-c1ccnc(C(=O)N[C@H]2CC[C@H](NCC(F)(F)F)CC2)n1` [Compound 264, 4-(1-methyl-1H-imidazol-5-yl)-N-((1r,4r)-4-((2,2,2-trifluoroethyl)amino)cyclohexyl)pyrimidine-2-carboxamide], the figures for the 50% inhibitory concentration (IC50) in experiment [1], in experiment [2] and in experiment [3] were 15.3 nM, 2100 nM and 40.9 nM, respectively.

As for `O=C(Nc1ccc(C(F)(F)F)nc1)c1cc(-n2ccnc2)ccn1` [Compound 6, 4-(1H-imidazol-1-yl)-N-(6-(trifluoromethyl)pyridin-3-yl)picolinamide], the IC50 in experiment [1] stood at 1580 nM; in experiment [2], 8690 nM; in experiment [3], 352 nM.

By IC50 is commonly meant the concentration needed to halve the response being measured.
